The values below come from US11479802B2, “Assays for screening activity of modulators of members of the hydroxy steroid (17-beta) dehydrogenase (HSD17B) family” (Regeneron Pharmaceuticals, Inc., priority 2017, dated 2022).

Structures can show the parent of a compound that is named as a salt.

The assay addresses T1, human HSD17B13 (Homo sapiens, UniProt Q7Z5P4).
T1 sequence (Q7Z5P4 20-300): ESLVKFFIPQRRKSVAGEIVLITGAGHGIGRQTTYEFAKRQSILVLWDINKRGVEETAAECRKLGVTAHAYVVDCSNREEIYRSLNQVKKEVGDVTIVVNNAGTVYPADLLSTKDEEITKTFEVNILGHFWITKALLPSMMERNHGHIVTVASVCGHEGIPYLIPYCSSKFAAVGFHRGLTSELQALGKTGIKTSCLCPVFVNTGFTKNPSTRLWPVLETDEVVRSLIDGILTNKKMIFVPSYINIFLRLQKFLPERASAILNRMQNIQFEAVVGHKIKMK
Put plainly: Substrate screening of steroid and bioactive lipid libraries against purified recombinant HSD17B13 (NADH-linked luciferase assay). In kind it is biochemical. The following applies: for HSD17B13 Enzymatic Activity Relative Light Units: 500 μM NAD+, 100 ng enzyme, 3 hours at 23° C.; for HSD17B13 Enzymatic Activity Percent Estradiol Control: normalized to 50 μM estradiol after subtraction of 5% DMSO. An outline of the steps: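 Substrates (bioactive lipids 5 μM, steroids 50 μM; 5% DMSO) tested with 500 μM NAD+ and 100 ng recombinant human HSD17B13 in 0.2 M Tris-HCl pH 7.5, 3 h, 23° C. Luminescent NADH detection followed 1 h later; RLU normalized to estradiol (50 μM, 100%) and DMSO (0%) controls.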

[1] abbreviates: Bioactive Lipid Library, 5 μM bioactive lipid (Estradiol Control 50 μM).
Where [2] appears, read: Bioactive Lipid Library, 5 μM bioactive lipid.

(±)11(12)-EET: the “HSD17B13 Enzymatic Activity Relative Light Units” value under setting [1] is 306600 RLU. For the same compound, under setting [2], the “HSD17B13 Enzymatic Activity Percent Estradiol Control” value was 1.47%.
The like results for `O=C(O)CCC/C=C\C/C=C\C/C=C\C/C=C\CCCCCO` [20-HETE] were, in that order, 332640 RLU and 0.57%.
The like results for `O=P(O)(O)O[C@@H]1C(O)[C@@H](OP(=O)(O)O)[C@@H](O)C(O)[C@H]1O` (stereo partly drawn) [D-myo-Inositol-2,4-diphosphate (sodium salt)] were, in that order, 306720 RLU and −1.38%.
For the compound `CCCCC/C=C\C/C=C\CC(O)C(O)C/C=C\CCCC(=O)O` (racemic) [(±)8(9)-DiHET], the “HSD17B13 Enzymatic Activity Relative Light Units” value under setting [1] was 472120 RLU. Also, the “HSD17B13 Enzymatic Activity Percent Estradiol Control” value under setting [2] turned out to be 11.11%.
On to `CCC1OC1C/C=C\C/C=C\C/C=C\C/C=C\CCCC(=O)O` (racemic) [(±)17(18)-EpETE], for which, under setting [1], the “HSD17B13 Enzymatic Activity Relative Light Units” value turned out to be 316240 RLU. Besides, the “HSD17B13 Enzymatic Activity Percent Estradiol Control” value under setting [2] was 2.19%.
The like results for `CCCCC[C@H](O)/C=C/C=C\CCCCCCCC(=O)O` [13(S)-HODE] were, in that order, 792800 RLU and 37.62%.
The like results for “Ptdlns-(5)-P1 (1,2-dipalmitoyl) (ammonium salt)” were, in that order, 19160 RLU and −23.10%.
In the same order, the values of `[2H]C([2H])(CC(=O)CC[C@H]1C(=O)C[C@H](O)[C@@H]1CCC(=O)O)C([2H])([2H])C([2H])([2H])C(=O)O` [tetranor-PGDM-d6] are 375520 RLU and 3.81%.
For the compound `CCCCCCCC/C=C\CCCCCCCC(=O)O` [Oleic Acid], under “Steroid Library, 50 μM steroid”, the “HSD17B13 Enzymatic Activity Relative Light Units” value worked out at 17520 RLU and the “HSD17B13 Enzymatic Activity Percent Estradiol Control” value is recorded as −2.50%.
Turning to “Ptdlns-(3,4,5)-P3 (1,2-dipalmitoyl) (sodium salt)”, under setting [1], the “HSD17B13 Enzymatic Activity Relative Light Units” value was determined as 334600 RLU. Also, the “HSD17B13 Enzymatic Activity Percent Estradiol Control” value under setting [2] was determined as 0.72%.
Consider `CC/C=C\C/C=C\C/C=C\C/C=C\C=C\C(O)C/C=C\CCC(=O)O` (racemic) [(±)7-HDHA], for which the “HSD17B13 Enzymatic Activity Relative Light Units” value under setting [1] is reported as 361320 RLU. For the same compound, the “HSD17B13 Enzymatic Activity Percent Estradiol Control” value under setting [2] stood at 5.54%.
Turning to `CCCCC/C=C\C[C@@H](/C=C/C=C\C/C=C\CCCC(=O)O)OO` [12(S)-HpETE], the “HSD17B13 Enzymatic Activity Relative Light Units” value under setting [1] came out at 199760 RLU. The “HSD17B13 Enzymatic Activity Percent Estradiol Control” value under setting [2] was −6.47%.
For the compound “Ptdlns-(3)-P1 (1,2-dioctanoyl) (sodium salt)”, the “HSD17B13 Enzymatic Activity Relative Light Units” value under setting [1] came out at 319680 RLU. In addition, the “HSD17B13 Enzymatic Activity Percent Estradiol Control” value under setting [2] is listed as −0.40%.
Take `CCCCC[C@H](O)/C=C/C=C\C/C=C\C/C=C\CCCC(=O)O` (racemic) [(±)15-HETE]: the “HSD17B13 Enzymatic Activity Relative Light Units” value under setting [1] is 47880 RLU. Besides, the “HSD17B13 Enzymatic Activity Percent Estradiol Control” value under setting [2] is 30.81%.
For `C[C@]12CCC(=O)C(O)=C1CC[C@@H]1[C@@H]2CC[C@]2(C)C(=O)CC[C@@H]12` [Formestane], for the setting “Steroid Library, 50 μM steroid”, the “HSD17B13 Enzymatic Activity Percent Estradiol Control” value amounted to 0.63%.
Regarding `O=P(O)(O)OC1[C@@H](O)[C@@H](O)C(O)[C@H](O)[C@H]1O` (stereo partly drawn) [D-myo-Inositol-4-phosphate (ammonium salt)], the “HSD17B13 Enzymatic Activity Relative Light Units” value under setting [1] came out at 408880 RLU. Moreover, the “HSD17B13 Enzymatic Activity Percent Estradiol Control” value under setting [2] came to 6.33%.
In the case of `CC/C=C\C[C@H]1C(=O)C=C[C@@H]1CCCCCCCC(=O)O` [13-epi-12-oxo Phytodienoic Acid], under setting [1], the “HSD17B13 Enzymatic Activity Relative Light Units” value is on record as 320640 RLU. Further, under setting [2], the “HSD17B13 Enzymatic Activity Percent Estradiol Control” value stood at 2.97%.
For the compound `CCCCC[C@@H](O)/C=C/C=C\C/C=C\C/C=C\CCCC(=O)O` [15(R)-HETE], the “HSD17B13 Enzymatic Activity Relative Light Units” value under setting [1] is listed as 701120 RLU. Under setting [2], the “HSD17B13 Enzymatic Activity Percent Estradiol Control” value turned out to be 61.00%.
